Measured values: US20190330167A1, “ACTIVATORS OF HIV LATENCY” (priority 2016, published 2019)

tested on: HIV-1 long terminal repeat (LTR)-driven luciferase reporter gene in FlipIn.FM HEK293 cells; experiment: cells; format: cell-based; conditions: HIV-LTR driven latent reporter; 11-point, 2-fold dilution series, highest concentration 40 μM; read-out: Latent reporter Av EC50
Experimental: FIG. 44. […] The FlipIn.FM model of HIV-1 latency was treated with JQ1 (+) and DP#14 (Compound 7) alone at 10 μM and in combination, and the HIV-1 gene expression measured 48 hrs post treatment. Error bars represent standard deviation of n=3 experiments. OPTI represents media alone, without DP#14.
FIG. 46. […] The FlipIn.FM model of HIV-1 latency was treated with PFI-1 and DP#14 alone at 10 μM and in combination, and the HIV-1 gene expression measured 48 hrs post treatment. Error bars represent standard deviation of n=3 experiments. OPTI represents media alone, without DP#14.
Explicitly, HEK293 derived FlipIn-FM and FlipIn-RV dual reporter cells each include a single stable HIV-1 long terminal repeat (LTR)-driven luciferase reporter genes, with a second complimentary non-HIV (off-target) luciferase reporter. These cell lines model post integration latency and read-through transcription by expressing a low level of HIV-1 Tat protein via a native Internal Ribosome Entry Site (IRES) found within Tat, from a chimeric cellular-tat gene cassette. FlipIn-FM and FlipIn-RV clones were chosen for low basal levels of LTR activity and high responsiveness to Tat as well as many Latency Reversing Agents (LRAs).
The dual reporter cell lines contain three stably integrated constructs that together allow for detection of novel LRAs, capable of potent and specific HIV reactivation. The FlipIn.FM line contains a proviral LTR-driven nef/CBR reporter fusion gene, allowing for detection of viral gene expression. A second CMV-driven CBG luciferase reporter allows for detection of off target drug effects, including non-specific activation and drug toxicity. The third construct contains the first coding exon of HIV-1 tat, within human Growth Hormone (hGH) as a chimeric gene, expressing HIV-1 Tat protein from an IRES mechanism that underlies the tat exon. This construct models read-through transcription and the low level of Tat protein expression that occurs during post integration latency. The counter screening reverse cell line, FlipIn.RV, contains the same three components with the Click Beetle Luciferase genes in the opposite orientation (LTR-CBG and CMV-CBR) for counter screening.
Compounds were evaluated in an 11-point titration using normal CMV-CBG/LTR-CBR reporter cell line and an 11 point reverse CMV-CBR/LTR-CBG reporter cell line.
The FlipIn cell lines were therefore designed with a dual purpose, to detect novel compounds that reactivate HIV-1 and to also screen out compounds that behaved in a largely non-specific manner. To achieve the latter, the cell lines contain an “off target” reporter gene construct, driven by the unrelated CMV-IE promoter, that allows for the detection of drug mediated off target effects including global gene activation as well as possible toxicity.
The HIV-LTR driven latent reporter gene identifies the HIV-specific activation, and the term “global reporter” is interchangeable with “off target reporter” and refers to the unrelated CMV-IE promoter driven reporter gene, which is used as a surrogate for global gene activation. […] The highest concentration tested here was 40 μM.

Work on `Cc1cnc(NC(=O)CCCOc2ccc(Cl)c(C)c2)s1` [Compound 1] yielded an EC50 of 4.88 µM.

same assay, conditions: Human immunodeficiency virus 1, HEK293, HIV-LTR driven latent reporter; 11-point, 2-fold dilution series, highest concentration 40 μM; read-out: Latent reporter Av EC50

Going from `Cc1cnc(NC(=O)CCCCc2ccccc2)s1` [Compound 4] to `Cc1cnc(NC(=O)CCCN(C)c2ccccc2)s1` [Compound 56], the EC50 rises from 9.26 µM to 14.8 µM (1.6-fold).

First: N#Cc1cnc(NC(=O)CCCOc2ccccc2)s1 [Compound 5]
Second: O=C(CCCOc1ccccc1)Nc1ncc(Cl)s1 [Compound 8]
The EC50 of the first is 1.7-fold higher: 3.48 µM for the first, 1.99 µM for the second. The second is the more potent here.

Compared with `CCc1cnc(NC(=O)CCCOc2ccccc2)s1` [Compound 6], `CC(C)c1cnc(NC(=O)CCCOc2ccccc2)s1` [Compound 52] is 3.5-fold higher in EC50: 1.09 µM for the first, 3.8 µM for the second.

`Cc1cnc(NC(=O)CCCOc2ccc(Cl)c(Cl)c2)s1` [Compound 12] and `Cc1cnc(NC(=O)CCCOc2ccc(Br)c(Cl)c2)s1` [Compound 14] are within 1.5-fold of each other in EC50: 3.22 µM for the first, 3.09 µM for the second.

First: O=C(CCCOc1ccc(Br)c(Cl)c1)Nc1ncc(Br)s1 [Compound 15]
Second: O=C(CCCOc1ccc(Cl)c(Cl)c1)Nc1ncc(Br)s1 [Compound 16]
The EC50 of the first is 2.1-fold higher: 2.56 µM for the first, 1.23 µM for the second. The second is the more potent here.

Going from `Cc1cc(OCCCC(=O)Nc2ncc(Br)s2)ccc1Cl` [Compound 17] to `Cc1cc(OCCCC(=O)Nc2ncc(Cl)s2)ccc1Cl` [Compound 20], the EC50 falls from 2.83 µM to 1.85 µM (1.5-fold). The second is the more potent here.

Going from `O=C(CCCOc1ccc(Br)c(Cl)c1)Nc1ncc(Cl)s1` [Compound 18] to `O=C(CCCOc1ccc(Cl)c(Cl)c1)Nc1ncc(Cl)s1` [Compound 19], the EC50 falls from 2.83 µM to 1.48 µM (1.9-fold).

`N#Cc1cnc(NC(=O)CCCOc2ccc(Br)c(Cl)c2)s1` [Compound 21] and `CCc1cnc(NC(=O)CCCOc2ccc(Br)c(Cl)c2)s1` [Compound 22] are within 1.5-fold of each other in EC50: 2.12 µM for the first, 2.01 µM for the second.

`O=C(CCCOc1ccccc1)Nc1ccc(Br)cn1` [Compound 29] and `O=C(CCCOc1ccccc1)Nc1ccc(Cl)cn1` [Compound 40] are within 1.5-fold of each other in EC50: 7.6 µM for the first, 6.86 µM for the second.

Compared with `O=C(CCCOc1ccccc1)Nc1ccc(C(F)(F)F)cn1` [Compound 30], `O=C(CCCOc1ccccc1)Nc1ncc(C(F)(F)F)s1` [Compound 51] is 4.1-fold lower in EC50: 9.74 µM for the first, 2.37 µM for the second. The second is the more potent here.

`Cc1cnc(NC(=O)CCCOc2ccc(Cl)c(C)c2)s1` [Compound 36] and `Cc1cnc(NC(=O)CCCOc2ccc(Cl)c(C(F)(F)F)c2)s1` [Compound 38] are within 1.5-fold of each other in EC50: 4.2 µM for the first, 5.07 µM for the second.

Compared with `COc1ccccc1OCCCC(=O)Nc1ncc(C)s1` [Compound 42], `COc1cccc(OCCCC(=O)Nc2ncc(C)s2)c1` [Compound 44] is 3.7-fold higher in EC50: 1.42 µM for the first, 5.3 µM for the second.

Compared with `Cc1cnc(NC(=O)CCCOc2cccc(O)c2)s1` [Compound 43], `Cc1cnc(NC(=O)CCCOc2cccc(Cl)c2)s1` [Compound 46] is 2.4-fold lower in EC50: 12.5 µM for the first, 5.23 µM for the second.

Going from `Cc1cnc(NC(=O)CCCOc2cccc([N+](=O)[O-])c2)s1` [Compound 45] to `Cc1cnc(NC(=O)CCCOc2cccc(C=O)c2)s1` [Compound 49], the EC50 falls from 5.29 µM to 2.64 µM (2-fold).

First: Cc1cnc(NC(=O)CCCOc2cccc(C(F)(F)F)c2)s1 [Compound 47]
Second: Cc1cnc(NC(=O)CCCOc2cccc(CO)c2)s1 [Compound 48]
The EC50 of the first is 1.6-fold higher: 6.55 µM for the first, 4.13 µM for the second. The second is the more potent here.

`Cc1cc(OCCCC(=O)Nc2ccc(Cl)cn2)ccc1Cl` [Compound 54] and `COc1ccc(NC(=O)CCCOc2ccc(Cl)c(C)c2)nc1` [Compound 55] are within 1.5-fold of each other in EC50: 19.4 µM for the first, 17.9 µM for the second.

`Cc1cnc(NC(=O)CCCNc2ccc(Cl)c(C)c2)s1` [Compound 57] and `Cc1cnc(NC(=O)CCCNc2ccc(Cl)c(C(F)(F)F)c2)s1` [Compound 58] are within 1.5-fold of each other in EC50: 1.7 µM for the first, 2 µM for the second.

Going from `Cc1cnc(NC(=O)CCCN(C)c2ccc(Cl)c(C)c2)s1` [Compound 59] to `Cc1cc(OCCC(=O)Nc2ncc(Cl)s2)ccc1Cl` [Compound 83], the EC50 rises from 1.11 µM to 2.2 µM (2-fold). The first is the more potent here.

`Cc1ccc(OCCCC(=O)Nc2ncc(Cl)s2)cc1Cl` [Compound 60] and `Cc1cc(OCCCC(=O)Nc2ncc(C(F)(F)F)s2)ccc1Cl` [Compound 62] are within 1.5-fold of each other in EC50: 3.56 µM for the first, 4.74 µM for the second.

First: Cc1cc(OCCCC(=O)Cc2ncc(C(C)C)s2)ccc1Cl [Compound 61]
Second: Cc1cnc2[nH]c(CCCOc3ccc(C)c(Cl)c3)nc2c1 [Compound 76]
The EC50 of the first is 1.8-fold lower: 4.29 µM for the first, 7.75 µM for the second.

`Cc1cnc(NC(=O)N2CCN(c3ccc(C)c(Cl)c3)CC2)s1` [Compound 63] and `Cc1cnc(NC(=O)N2CCN(c3ccc(Cl)c(C)c3)CC2)s1` [Compound 69] are within 1.5-fold of each other in EC50: 0.45 µM for the first, 0.34 µM for the second.

Compared with `Cc1cnc(NC(=O)N2CCN(c3ccc(Cl)c(Cl)c3)CC2)s1` [Compound 66], `O=C(Nc1ncc(Cl)s1)N1CCN(c2ccc(Cl)c(Cl)c2)CC1` [Compound 67] is 2.1-fold lower in EC50: 0.58 µM for the first, 0.27 µM for the second.

Going from `N#Cc1cnc(NC(=O)N2CCN(c3ccc(Cl)c(Cl)c3)CC2)s1` [Compound 68] to `Cc1cc(N2CCN(C(=O)Nc3ncc(C#N)s3)CC2)ccc1Cl` [Compound 71], the EC50 rises from 0.52 µM to 0.88 µM (1.7-fold).

Compared with `Cc1cc(N2CCN(C(=O)Nc3ncc(Cl)s3)CC2)ccc1Cl` [Compound 70], `Cc1ccc(N2CCCN(C(=O)Nc3ncc(Cl)s3)CC2)cc1Cl` [Compound 74] is 25-fold higher in EC50: 0.21 µM for the first, 5.2 µM for the second.

Compared with `Cc1cc(N2CCN(C(=O)Nc3ncc(Cl)s3)CC2)ncc1C#N` [Compound 72], `O=C(Nc1ncc(Cl)s1)N1CCCN(c2ccc(Cl)c(Cl)c2)CC1` [Compound 75] is 22-fold higher in EC50: 0.25 µM for the first, 5.46 µM for the second.

First: Cc1ccc(OCCCc2nc3cc(Br)cnc3[nH]2)cc1Cl [Compound 77]
Second: Cc1ccc(N2CCC(C(=O)Nc3ncc(Cl)s3)CC2)cc1Cl [Compound 78]
The EC50 of the first is 2.9-fold lower: 3.97 µM for the first, 11.4 µM for the second.

First: Cc1ccc(N2CCC(C(=O)Nc3ncc(C#N)s3)CC2)cc1Cl [Compound 79]
Second: Cc1cnc(NC(=O)N2CCC(Nc3ccc(Cl)c(C)c3)C2)s1 (centres unmarked) [Compound 80]
The EC50 of the first is 2.6-fold lower: 3.83 µM for the first, 10.1 µM for the second. The first is the more potent here.

`Cc1cc(NC2CCN(C(=O)Nc3ncc(Cl)s3)C2)ccc1Cl` (centres unmarked) [Compound 81] showed an EC50 of 1.5 µM.
